# Measured values published in PMC6586010 (Journal of Clinical Pharmacology, 2018).
# Read-outs that look alike come from different tables or passages of the source.
# What was measured:
# [1] = test system: HIV‐1; assay: Study 1; format: in vivo; conditions: for subjects who discontinued the study because of lack of efficacy: through week 96, maraviroc
# [2] = test system: CYP3A5; conditions: human liver microsomes of CYP3A5*1/*1 (EM) donors; cited from earlier work
# [3] = format: in vivo, human; conditions: part 1
# [4] = test system: HIV; conditions: viral inhibition; cited from earlier work
# [5] = test system: HIV‐1; conditions: study 1; cited from earlier work
# [6] = test system: HIV‐1; conditions: 48 weeks, cited from earlier work
# [7] = week 48, efavirenz 600 mg once daily + zidovudine/lamivudine, EMs (2 CYP3A5*1 alleles)
# [8] = week 48, efavirenz 600 mg once daily + zidovudine/lamivudine, IMs (1 CYP3A5*1 allele)
# [9] = week 48, efavirenz 600 mg once daily + zidovudine/lamivudine, PMs (no CYP3A5*1 alleles)
# [10] = week 48, efavirenz 600 mg once daily + zidovudine/lamivudine, overall
# [11] = week 96, efavirenz 600 mg once daily + zidovudine/lamivudine, EMs (2 CYP3A5*1 alleles)
# [12] = week 96, efavirenz 600 mg once daily + zidovudine/lamivudine, IMs (1 CYP3A5*1 allele)
# [13] = week 96, efavirenz 600 mg once daily + zidovudine/lamivudine, PMs (no CYP3A5*1 alleles)
# [14] = week 96, efavirenz 600 mg once daily + zidovudine/lamivudine, overall
# [15] = week 48, maraviroc 300 mg twice daily + zidovudine/lamivudine, EMs (2 CYP3A5*1 alleles)
# [16] = week 48, maraviroc 300 mg twice daily + zidovudine/lamivudine, IMs (1 CYP3A5*1 allele)
# [17] = week 48, maraviroc 300 mg twice daily + zidovudine/lamivudine, PMs (no CYP3A5*1 alleles)
# [18] = week 48, maraviroc 300 mg twice daily + zidovudine/lamivudine, overall
# [19] = week 96, maraviroc 300 mg twice daily + zidovudine/lamivudine, EMs (2 CYP3A5*1 alleles)
# [20] = week 96, maraviroc 300 mg twice daily + zidovudine/lamivudine, IMs (1 CYP3A5*1 allele)
# [21] = week 96, maraviroc 300 mg twice daily + zidovudine/lamivudine, PMs (no CYP3A5*1 alleles)
# [22] = week 96, maraviroc 300 mg twice daily + zidovudine/lamivudine, overall
compound,measurement,setting,value
O=C1Nc2ccc(Cl)cc2[C@@](C#CC2CC2)(C(F)(F)F)O1 [Efavirenz],Proportion of subjects with HIV-1 RNA <50 copies/mL,[1]; [7],19/30 (63.3) %
same,Proportion of subjects with HIV-1 RNA <400 copies/mL,[1]; [7],20/30 (66.7) %
same,Proportion of subjects with HIV-1 RNA <50 copies/mL,[1]; [8],68/96 (70.8) %
same,Proportion of subjects with HIV-1 RNA <400 copies/mL,[1]; [8],71/96 (74.0) %
same,Proportion of subjects with HIV-1 RNA <50 copies/mL,[1]; [9],113/164 (68.9) %
same,Proportion of subjects with HIV-1 RNA <400 copies/mL,[1]; [9],119/164 (72.6) %
same,Proportion of subjects with HIV-1 RNA <50 copies/mL,[1]; [10],200/290 (69.0) %
same,Proportion of subjects with HIV-1 RNA <400 copies/mL,[1]; [10],210/290 (72.4) %
same,Proportion of subjects with HIV-1 RNA <50 copies/mL,[1]; [11],17/30 (56.7) %
same,Proportion of subjects with HIV-1 RNA <400 copies/mL,[1]; [11],17/30 (56.7) %
same,Proportion of subjects with HIV-1 RNA <50 copies/mL,[1]; [12],62/96 (64.6) %
same,Proportion of subjects with HIV-1 RNA <400 copies/mL,[1]; [12],63/96 (65.6) %
same,Proportion of subjects with HIV-1 RNA <50 copies/mL,[1]; [13],104/164 (63.4) %
same,Proportion of subjects with HIV-1 RNA <400 copies/mL,[1]; [13],107/164 (65.2) %
same,Proportion of subjects with HIV-1 RNA <50 copies/mL,[1]; [14],183/290 (63.1) %
same,Proportion of subjects with HIV-1 RNA <400 copies/mL,[1]; [14],187/290 (64.5) %
CC(C)c1nnc(CO)n1C1C[C@H]2CC[C@@H](C1)N2CC[C@H](NC(=O)C1CCC(F)(F)CC1)c1ccccc1 (some centres unmarked) [hydroxymethylmaraviroc],CYP3A5 contribution to the formation of this metabolite,[2],1%
"(1R,2R)‐2‐hydroxymaraviroc [(1R,2R)-2-hydroxymaraviroc]",CYP3A5 contribution to the formation of this metabolite,[2],minimal
same,mean MRAUC12 among black IMs and PMs and white PMs,[3],comparable
"Cc1nnc(C(C)C)n1C1C[C@H]2CC[C@@H](C1)N2CC[C@H](NC(=O)[C@H]1CCC(F)(F)[C@H](O)C1)c1ccccc1 (stereo partly drawn) [(1S,3R)-3-hydroxymaraviroc, (1S,3R)‐3‐hydroxymaraviroc]",CYP3A5 contribution to the formation of this metabolite,[2],minimal
same,mean MRAUC12 across all cohorts,[3],comparable
Maraviroc,in vivo concentration for 50% inhibition,[4],~8 ng/mL
same,subjects who discontinued the study because of lack of efficacy,[1]; EMs (4/43),9.3%
same,subjects who discontinued the study because of lack of efficacy,[1]; IMs (8/85),9.4%
same,subjects who discontinued the study because of lack of efficacy,[1]; PMs (25/175),14.3%
same,Proportion of subjects with HIV-1 RNA <50 copies/mL,[1]; [15],30/43 (69.8) %
same,Proportion of subjects with HIV-1 RNA <400 copies/mL,[1]; [15],32/43 (74.4) %
same,Proportion of subjects with HIV-1 RNA <50 copies/mL,[1]; [16],53/85 (62.4) %
same,Proportion of subjects with HIV-1 RNA <400 copies/mL,[1]; [16],61/85 (71.8) %
same,Proportion of subjects with HIV-1 RNA <50 copies/mL,[1]; [17],126/175 (72.0) %
same,Proportion of subjects with HIV-1 RNA <400 copies/mL,[1]; [17],132/175 (75.4) %
same,Proportion of subjects with HIV-1 RNA <50 copies/mL,[1]; [18],209/303 (69.0) %
same,Proportion of subjects with HIV-1 RNA <400 copies/mL,[1]; [18],225/303 (74.3) %
same,Proportion of subjects with HIV-1 RNA <50 copies/mL,[1]; [19],23/43 (53.5) %
same,Proportion of subjects with HIV-1 RNA <400 copies/mL,[1]; [19],26/43 (60.5) %
same,Proportion of subjects with HIV-1 RNA <50 copies/mL,[1]; [20],47/85 (55.3) %
same,Proportion of subjects with HIV-1 RNA <400 copies/mL,[1]; [20],52/85 (61.2) %
same,Proportion of subjects with HIV-1 RNA <50 copies/mL,[1]; [21],109/175 (62.3) %
same,Proportion of subjects with HIV-1 RNA <400 copies/mL,[1]; [21],117/175 (66.9) %
same,Proportion of subjects with HIV-1 RNA <50 copies/mL,[1]; [22],179/303 (59.1) %
same,Proportion of subjects with HIV-1 RNA <400 copies/mL,[1]; [22],195/303 (64.4) %
same,proportions of subjects with HIV-1 RNA <50 and <400 copies/mL among all 3 CYP3A5 genotypes,[1]; weeks 48 and 96,comparable
same,Cavg associated with near-maximal virologic efficacy,[5],75 ng/mL
same,blacks with viral load <50 copies/mL,[6]; once-daily maraviroc group,28%
same,blacks with viral load <50 copies/mL,[6]; twice-daily maraviroc group,26%
"(1S,3S)‐3‐hydroxymaraviroc [(1S,3S)-3-hydroxymaraviroc]",CYP3A5 contribution to the formation of this metabolite,[2],minimal
same,mean MRAUC12 across all cohorts,[3],comparable
